Source: PubChem BioAssay (NCI)
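Following 48 hours of exposure in 96-well plates, responses at five concentrations were used to interpolate endpoints linearly. The concentration for 50% growth inhibition is given as GI50. TGI marks complete inhibition of growth.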

What was measured:
Test in all cases: DTP human tumour cell line panel, 48 h; in the data active = GI50 below about 0.43 µM; inactive = the rest
KM12 colon = tested on: KM12 colon
CCRF-CEM leukemia = tested on: CCRF-CEM leukemia
HOP-92 NSCLC = tested on: HOP-92 NSCLC
SNB-19 CNS = tested on: SNB-19 CNS
UACC-62 melanoma = tested on: UACC-62 melanoma
NCI-H23 lung = tested on: NCI-H23 lung
M14 melanoma = tested on: M14 melanoma
RPMI-8226 leukemia = tested on: RPMI-8226 leukemia
MDA-MB-435 = tested on: MDA-MB-435
HCT-116 colon = tested on: HCT-116 colon
OVCAR-8 ovarian = tested on: OVCAR-8 ovarian
SK-OV-3 ovarian = tested on: SK-OV-3 ovarian
SF-539 CNS = tested on: SF-539 CNS
UACC-257 melanoma = tested on: UACC-257 melanoma
PC-3 prostate = tested on: PC-3 prostate
OVCAR-5 ovarian = tested on: OVCAR-5 ovarian
NCI/ADR-RES ovarian = tested on: NCI/ADR-RES ovarian
HCC-2998 colon = tested on: HCC-2998 colon
HOP-62 NSCLC = tested on: HOP-62 NSCLC
OVCAR-4 ovarian = tested on: OVCAR-4 ovarian
T-47D breast = tested on: T-47D breast
A549 NSCLC = tested on: A549 NSCLC
CAKI-1 renal = tested on: CAKI-1 renal
SF-268 CNS = tested on: SF-268 CNS
MDA-MB-231 breast = tested on: MDA-MB-231 breast
786-0 renal = tested on: 786-0 renal
U251 CNS = tested on: U251 CNS
NCI-H226 lung = tested on: NCI-H226 lung
COLO 205 colon = tested on: COLO 205 colon
RXF 393 renal = tested on: RXF 393 renal
OVCAR-3 ovarian = tested on: OVCAR-3 ovarian
HS 578T breast = tested on: HS 578T breast
SK-MEL-28 melanoma = tested on: SK-MEL-28 melanoma
MCF7 breast = tested on: MCF7 breast
SF-295 CNS = tested on: SF-295 CNS
SN12C renal = tested on: SN12C renal
HCT-15 colon = tested on: HCT-15 colon
EKVX NSCLC = tested on: EKVX NSCLC
LOX IMVI melanoma = tested on: LOX IMVI melanoma
ACHN renal = tested on: ACHN renal
SK-MEL-5 melanoma = tested on: SK-MEL-5 melanoma
DU-145 prostate = tested on: DU-145 prostate
SNB-75 CNS = tested on: SNB-75 CNS
NCI-H460 lung = tested on: NCI-H460 lung
SW-620 colon = tested on: SW-620 colon
A498 renal = tested on: A498 renal
SR leukemia = tested on: SR leukemia
IGROV1 ovarian = tested on: IGROV1 ovarian
NCI-H522 lung = tested on: NCI-H522 lung
MALME-3M melanoma = tested on: MALME-3M melanoma
TK-10 renal = tested on: TK-10 renal
UO-31 renal = tested on: UO-31 renal
SK-MEL-2 melanoma = tested on: SK-MEL-2 melanoma
MOLT-4 leukemia = tested on: MOLT-4 leukemia
HT29 colon = tested on: HT29 colon
HL-60(TB) leukemia = tested on: HL-60(TB) leukemia
K-562 leukemia = tested on: K-562 leukemia

CCCCCCCCO/N=C\c1c2c(O)c3c(O)c(C)c4c(c3c1O)C(=O)C(C)(O/C=C\C(OC)C(C)C(OC(C)=O)C(C)C(O)C(C)C(O)C(C)/C=C\C=C(\C)C(=O)N2)O4 (stereo unspecified)
2.92 µM: TGI (UACC-62 melanoma)
3.18 µM: TGI (RXF 393 renal)
6.42 µM: TGI (A549 NSCLC)
8.93 µM: TGI (SNB-19 CNS)
5.12 µM: TGI (MCF7 breast)
8.18 µM: TGI (SF-268 CNS)
5.4 µM: TGI (M14 melanoma)
9.22 µM: TGI (SN12C renal)
2.09 µM: TGI (SK-MEL-5 melanoma)
8.08 µM: TGI (OVCAR-5 ovarian)
inactive: GI50 (KM12 colon) 1.67 µM | GI50 (CCRF-CEM leukemia) 1.95 µM | GI50 (HOP-92 NSCLC) 1.38 µM | GI50 (SNB-19 CNS) 2.42 µM | GI50 (UACC-62 melanoma) 1.02 µM | GI50 (NCI-H23 lung) 1.74 µM | GI50 (M14 melanoma) 1.57 µM | GI50 (RPMI-8226 leukemia) 2.21 µM | GI50 (MDA-MB-435) 1.43 µM | GI50 (HCT-116 colon) 1.06 µM | GI50 (OVCAR-8 ovarian) 1.75 µM | GI50 (SK-OV-3 ovarian) 1.86 µM | GI50 (SF-539 CNS) 2.74 µM | GI50 (UACC-257 melanoma) 1.34 µM | GI50 (PC-3 prostate) 1.82 µM | GI50 (OVCAR-5 ovarian) 2.12 µM | GI50 (NCI/ADR-RES ovarian) 1.93 µM | GI50 (HCC-2998 colon) 2.05 µM | GI50 (HOP-62 NSCLC) 1.63 µM | GI50 (OVCAR-4 ovarian) 1.61 µM | GI50 (T-47D breast) 2.06 µM | GI50 (A549 NSCLC) 1.73 µM | GI50 (CAKI-1 renal) 1.33 µM | GI50 (SF-268 CNS) 2.02 µM | GI50 (MDA-MB-231 breast) 1.63 µM | GI50 (786-0 renal) 1.13 µM | GI50 (U251 CNS) 1.14 µM | GI50 (NCI-H226 lung) 2.05 µM | GI50 (COLO 205 colon) 1.35 µM | GI50 (RXF 393 renal) 1.14 µM | GI50 (OVCAR-3 ovarian) 0.96 µM | GI50 (HS 578T breast) 1.07 µM | GI50 (SK-MEL-28 melanoma) 1.37 µM | GI50 (MCF7 breast) 1.36 µM | GI50 (SF-295 CNS) 0.953 µM | GI50 (SN12C renal) 2.39 µM | GI50 (HCT-15 colon) 1.79 µM | GI50 (EKVX NSCLC) 1.43 µM | GI50 (LOX IMVI melanoma) 1.53 µM | GI50 (ACHN renal) 1.78 µM | GI50 (SK-MEL-5 melanoma) 0.948 µM | GI50 (DU-145 prostate) 1.8 µM | GI50 (SNB-75 CNS) 1.66 µM | GI50 (NCI-H460 lung) 0.998 µM | GI50 (SW-620 colon) 1.77 µM | GI50 (A498 renal) 1.81 µM
6.93 µM: TGI (DU-145 prostate)
6.36 µM: TGI (KM12 colon)
5.78 µM: TGI (HOP-62 NSCLC)
9.71 µM: TGI (NCI-H226 lung)
2.18 µM: TGI (OVCAR-3 ovarian)
4.69 µM: TGI (UACC-257 melanoma)
7.12 µM: TGI (A498 renal)
6.09 µM: TGI (SW-620 colon)
6.99 µM: TGI (NCI/ADR-RES ovarian)
2.14 µM: TGI (NCI-H460 lung)
6.81 µM: TGI (HCT-15 colon)
2.19 µM: TGI (HCT-116 colon)
2.77 µM: TGI (786-0 renal)
5.6 µM: TGI (LOX IMVI melanoma)
3.03 µM: TGI (U251 CNS)
3.1 µM: TGI (HS 578T breast)
9.75 µM: TGI (SF-539 CNS)
5.58 µM: TGI (OVCAR-4 ovarian)
3.59 µM: TGI (COLO 205 colon)
8.43 µM: TGI (RPMI-8226 leukemia)
5.32 µM: TGI (HOP-92 NSCLC)
6.58 µM: TGI (ACHN renal)
7.02 µM: TGI (PC-3 prostate)
6.59 µM: TGI (EKVX NSCLC)
9.82 µM: TGI (CCRF-CEM leukemia)
6.55 µM: TGI (NCI-H23 lung)
7.03 µM: TGI (HCC-2998 colon)
4.17 µM: TGI (SK-MEL-28 melanoma)
5.9 µM: TGI (MDA-MB-435)
2.56 µM: TGI (SF-295 CNS)
6.97 µM: TGI (OVCAR-8 ovarian) | TGI (SNB-75 CNS)
6.68 µM: TGI (SK-OV-3 ovarian)
5.04 µM: TGI (CAKI-1 renal)
5.91 µM: TGI (MDA-MB-231 breast)
7.45 µM: TGI (T-47D breast)

O=c1c2c([nH]c3nccn13)CCCC2
> 10 µM: TGI (KM12 colon) | TGI (CCRF-CEM leukemia) | TGI (SNB-19 CNS) | TGI (UACC-62 melanoma) | TGI (NCI-H23 lung) | TGI (SR leukemia) | TGI (M14 melanoma) | TGI (IGROV1 ovarian) | TGI (RPMI-8226 leukemia) | TGI (MDA-MB-435) | TGI (HCT-116 colon) | TGI (NCI-H522 lung) | TGI (OVCAR-8 ovarian) | TGI (SK-OV-3 ovarian) | TGI (SF-539 CNS) | TGI (PC-3 prostate) | TGI (OVCAR-5 ovarian) | TGI (MALME-3M melanoma) | TGI (NCI/ADR-RES ovarian) | TGI (HCC-2998 colon) | TGI (HOP-62 NSCLC) | TGI (OVCAR-4 ovarian) | TGI (T-47D breast) | TGI (TK-10 renal) | TGI (A549 NSCLC) | TGI (CAKI-1 renal) | TGI (UO-31 renal) | TGI (SF-268 CNS) | TGI (MDA-MB-231 breast) | TGI (U251 CNS) | TGI (NCI-H226 lung) | TGI (COLO 205 colon) | TGI (RXF 393 renal) | TGI (SK-MEL-2 melanoma) | TGI (OVCAR-3 ovarian) | TGI (HS 578T breast) | TGI (SK-MEL-28 melanoma) | TGI (MCF7 breast) | TGI (SF-295 CNS) | TGI (MOLT-4 leukemia) | TGI (SN12C renal) | TGI (HCT-15 colon) | TGI (EKVX NSCLC) | TGI (LOX IMVI melanoma) | TGI (ACHN renal) | TGI (SK-MEL-5 melanoma) | TGI (DU-145 prostate) | TGI (SNB-75 CNS) | TGI (NCI-H460 lung) | TGI (SW-620 colon) | TGI (HT29 colon) | TGI (HL-60(TB) leukemia) | TGI (A498 renal)

O=C1OC(c2ccccc2)=N/C1=C/c1cccs1
44.9 µM: TGI (RPMI-8226 leukemia)
> 100 µM: TGI (KM12 colon) | TGI (HOP-92 NSCLC) | TGI (SNB-19 CNS) | TGI (SR leukemia) | TGI (M14 melanoma) | TGI (IGROV1 ovarian) | TGI (MDA-MB-435) | TGI (OVCAR-8 ovarian) | TGI (SK-OV-3 ovarian) | TGI (SF-539 CNS) | TGI (UACC-257 melanoma) | TGI (PC-3 prostate) | TGI (OVCAR-5 ovarian) | TGI (HCC-2998 colon) | TGI (HOP-62 NSCLC) | TGI (OVCAR-4 ovarian) | TGI (TK-10 renal) | TGI (A549 NSCLC) | TGI (SF-268 CNS) | TGI (K-562 leukemia) | TGI (U251 CNS) | TGI (NCI-H226 lung) | TGI (RXF 393 renal) | TGI (SK-MEL-2 melanoma) | TGI (OVCAR-3 ovarian) | TGI (HS 578T breast) | TGI (SK-MEL-28 melanoma) | TGI (MCF7 breast) | TGI (SF-295 CNS) | TGI (HCT-15 colon) | TGI (EKVX NSCLC) | TGI (ACHN renal) | TGI (SNB-75 CNS) | TGI (NCI-H460 lung) | TGI (SW-620 colon) | TGI (HT29 colon)
44.5 µM: TGI (HL-60(TB) leukemia)
75.1 µM: TGI (CCRF-CEM leukemia)
41.9 µM: TGI (MOLT-4 leukemia)
83.7 µM: TGI (NCI/ADR-RES ovarian)
